Reference: US12673947B2 (Cytosinlab Therapeutics Co., Ltd., priority 2020, dated 2026)

Tests used:
FLT3 = molecular target: T1, FLT3 (Homo sapiens, UniProt P36888); experiment: FLT3 kinase in vitro inhibitory activity experiment (Caliper mobility shift, conversion rate); assay type: biochemical; conditions: IC50 class, read-out: Enzyme activity FLT3
T1 construct: purchased Carna 08-145
T1 sequence (P36888 27-993): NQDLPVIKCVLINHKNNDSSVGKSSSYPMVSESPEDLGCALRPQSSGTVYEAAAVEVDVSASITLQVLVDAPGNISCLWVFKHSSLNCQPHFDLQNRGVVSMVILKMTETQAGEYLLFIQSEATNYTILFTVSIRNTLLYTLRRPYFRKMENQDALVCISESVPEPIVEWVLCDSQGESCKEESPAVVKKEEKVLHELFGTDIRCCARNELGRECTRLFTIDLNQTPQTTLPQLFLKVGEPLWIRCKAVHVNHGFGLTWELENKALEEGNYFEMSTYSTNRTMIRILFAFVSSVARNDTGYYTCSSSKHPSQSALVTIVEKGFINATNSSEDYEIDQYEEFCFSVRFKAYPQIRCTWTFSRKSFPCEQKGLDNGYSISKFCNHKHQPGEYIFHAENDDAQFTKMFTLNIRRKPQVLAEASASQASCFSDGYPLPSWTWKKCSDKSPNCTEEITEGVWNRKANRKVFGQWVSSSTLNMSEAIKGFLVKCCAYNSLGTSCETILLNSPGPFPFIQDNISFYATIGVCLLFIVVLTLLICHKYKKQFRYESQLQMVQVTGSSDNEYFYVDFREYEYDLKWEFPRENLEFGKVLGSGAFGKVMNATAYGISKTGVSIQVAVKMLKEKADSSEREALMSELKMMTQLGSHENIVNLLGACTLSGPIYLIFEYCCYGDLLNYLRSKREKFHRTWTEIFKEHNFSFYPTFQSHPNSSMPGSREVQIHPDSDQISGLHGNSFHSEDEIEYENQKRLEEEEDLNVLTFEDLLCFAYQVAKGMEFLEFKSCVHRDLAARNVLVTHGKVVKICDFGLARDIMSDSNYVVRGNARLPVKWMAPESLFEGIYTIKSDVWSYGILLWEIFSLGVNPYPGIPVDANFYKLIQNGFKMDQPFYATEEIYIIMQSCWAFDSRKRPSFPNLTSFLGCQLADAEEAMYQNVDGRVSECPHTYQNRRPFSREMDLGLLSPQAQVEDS
Method in brief: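 Tested in single wells as ten 3-fold dilutions of a 1 μM initial stock. Compound and FLT3 stood 10 min at room temperature; ATP with Kinase substrate 2 was then added for 30 min at room temperature and the reaction stopped. Conversion was measured by Caliper mobility shift, and inhibition was normalised to control-well conversion.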

MV4;11 cells = experiment: MV4;11 in vitro inhibition of proliferation assay (CellTiter-Glo, 72 hours); assay type: cell-based; conditions: Homo sapiens, MV4-11, 72 h, IC50 class, read-out: Inhibitory activity of cell proliferation MV4;11
Method in brief: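 IC50 came from four-parameter fitting of inhibition rates, based on CellTiter-Glo luminescence after 72 hours at 37° C. Each well held 2000 MV4;11 cells grown in IMDM with 10% serum. Compounds formed a nine-point, threefold DMSO series starting at 10 uM, tested in triplicate at 0.3% final DMSO.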

Row | SMILES | IC50 (FLT3) | IC50 (MV4;11 cells)
1 | CCc1nc2c(N)ncc(-c3cnn(C4CCN(C5CCN(C)CC5)CC4)c3)c2nc1NC1CCOC1 (centres unmarked) [Compound 247] | ≤ 10 nM | 10 to 100 nM
2 | CCc1nc2c(N)ncc(-c3cnn(C4CCN(C5CCN(C)CC5)CC4)c3)c2nc1N[C@H]1CCOC1 [Compound 248] | ≤ 10 nM | 10 to 100 nM
3 | CCc1nc2c(N)ncc(-c3cnn(C4CCN(C5CCN(C)CC5)CC4)c3)c2nc1N[C@@H]1CC[C@H](O)C1 [Compound 249] | ≤ 10 nM | ≤ 10 nM
4 | CCc1nc2c(N)ncc(-c3ccc(N4CCC(N5CCN(C)CC5)CC4)c(OC)c3)c2nc1N[C@@H]1CCOC1 [Compound 251] | ≤ 10 nM | 10 to 100 nM
5 | CCc1nc2c(N)ncc(-c3ccc(N4CCC(N5CCN(C)CC5)CC4)c(OC)c3)c2nc1N[C@H]1CCOC1 [Compound 252] | ≤ 10 nM | 10 to 100 nM
6 | CCc1nc2c(N)ncc(-c3ccc(N4CCC(N5CCN(CC)CC5)CC4)c(OC)c3)c2nc1N[C@@H]1CC[C@H](O)C1 [Compound 253] | ≤ 10 nM | ≤ 10 nM
7 | CCc1nc2c(N)ncc(-c3ccc(N4CCC(N5CCN(C)CC5)CC4)c(OC)c3)c2nc1N[C@@H]1CCC[C@H](O)C1 [Compound 257] | ≤ 10 nM | ≤ 10 nM
8 | CCc1nc2c(N)ncc(-c3cnn(C4CCN(C(C)C)CC4)c3)c2nc1N[C@@H]1CCC[C@H](O)C1 [Compound 260] | ≤ 10 nM | ≤ 10 nM
9 | CCc1nc2c(N)ncc(-c3cnn(C4CCN(C)CC4)c3)c2nc1N1CCC(O)C1 (centres unmarked) [Compound 261] | ≤ 10 nM | 10 to 100 nM
10 | CCc1nc2c(N)ncc(-c3ccc(N4C[C@@H](C)O[C@@H](C)C4)c(OC)c3)c2nc1N[C@@H]1CC[C@H](O)C1 [Compound 265] | ≤ 10 nM | 10 to 100 nM
11 | CCc1nc2c(N)ncc(-c3ccc(N4CC5CCC(C4)O5)c(OC)c3)c2nc1N[C@@H]1CC[C@H](O)C1 [Compound 266] | ≤ 10 nM | 10 to 100 nM
12 | CCc1nc2c(N)ncc(-c3ccc(N4C[C@H](C)O[C@@H](C)C4)c(OC)c3)c2nc1N[C@@H]1CC[C@H](O)C1 [Compound 267] | ≤ 10 nM | 10 to 100 nM
13 | CCc1nc2c(N)ncc(-c3ccc(N4CCC(N5CCN(C)CC5)CC4)c(C(F)F)c3)c2nc1NC1CCOCC1 [Compound 268] | ≤ 10 nM | 10 to 100 nM
14 | CCc1nc2c(N)ncc(-c3cnn(-c4ccnc(C(F)(F)F)n4)c3)c2nc1N[C@@H]1CC[C@H](O)C1 [Compound 274] | ≤ 10 nM | 10 to 100 nM
15 | CCc1nc2c(N)ncc(-c3cnn(-c4ccc(C5CCCCC5)cc4)c3)c2nc1N[C@@H]1CC[C@H](O)C1 [Compound 277] | 10 to 100 nM | 100 to 500 nM
16 | CCc1nc2c(N)ncc(-c3cnn(-c4ccnc(C)n4)c3)c2nc1NC1CCOCC1 [Compound 280] | ≤ 10 nM | ≤ 10 nM
17 | CCc1nc2c(N)ncc(-c3cnn(-c4ccnc(C)n4)c3)c2nc1N[C@H]1CCOC1 [Compound 281] | 10 to 100 nM | 10 to 100 nM
18 | CCc1nc2c(N)ncc(-c3cnn(C4CCS(=O)(=O)CC4)c3)c2nc1N[C@@H]1CC[C@H](O)C1 [Compound 282] | ≤ 10 nM | 10 to 100 nM
19 | CCc1nc2c(N)ncc(-c3cnn(C4CCc5cc(F)cc(F)c5CC4)c3)c2nc1N[C@@H]1CC[C@H](O)C1 (some centres unmarked) [Compound 283] | ≤ 10 nM | 10 to 100 nM
20 | CCc1nc2c(N)ncc(-c3ccc(N4CC5CCC(C4)N5C)c(OC)c3)c2nc1N[C@@H]1CC[C@H](O)C1 [Compound 286, (1S, 3R)-3-((5-amino-3-ethyl-8-(3-methoxy-4-(8-methyl-3,8-diazabicyclo[3.2.1]octyl-3-yl)phenyl)pyridino[3,4-b]pyrazine-2-yl)amino)cyclopentan-1-ol] | ≤ 10 nM | ≤ 10 nM
21 | CCc1nc2c(N)ncc(-c3ccc(N4CCC(N5CCN(C)CC5)C(C)C4)c(OC)c3)c2nc1NC1CCOCC1 (centres unmarked) [Compound 287, 3-ethyl-8-(3-methoxy-4-(3-methyl-4-(4-methylpiperazine-1-yl)piperidine-1-yl)phenyl)-N2-(tetrahydro-2H-pyran-4-yl)pyridino[3,4-b]pyrazine-2,5-diamine] | ≤ 10 nM | 10 to 100 nM
22 | CCc1nc2c(N)ncc(-c3ccc(-c4ccnc(C)n4)c(OC)c3)c2nc1N[C@@H]1CC[C@H](O)C1 [Compound 288, (1S,3R)-3-((5-amino-3-ethyl-8-(3-methoxy-4-(2-methylpyrimidine-4-yl)phenyl)pyrido[3,4-b]pyrazine-2-yl)amino)cyclopentan-1-ol] | ≤ 10 nM | 10 to 100 nM
23 | CCc1nc2c(N)ncc(-c3cnn(-c4ccc(OC5CCN(C)CC5)cc4)c3)c2nc1N[C@@H]1CC[C@H](O)C1 [Compound 292, (1S, 3R)-3-((5-amino-3-ethyl-8-(1-(4-((1-methylpiperidin-4-yl)oxy)phenyl)-1H-pyrazol-4-yl)pyridino[3,4-b]pyrazin-2-yl)amino)cyclopentan-1-ol] | > 500 nM | 100 to 500 nM
24 | CCc1nc2c(N)ncc(-c3ccc(N4CCC(N5CC6CCC(C5)N6C)CC4)c(OC)c3)c2nc1NC1CCOCC1 [Compound 293, 3-ethyl-8-(3-methoxy-4-(4-(8-methyl-3,8-diazabicyclo[3.2.1]octan-3-yl)piperidin-1-yl)phenyl)-N2-(tetrahydro-2H-pyran-4-yl)pyridino [3,4-b]pyrazin-2,5-diamine] | ≤ 10 nM | 10 to 100 nM

The remaining lines, values ahead:

Row | IC50 (FLT3) | IC50 (MV4;11 cells) | SMILES
25 | ≤ 10 nM | ≤ 10 nM | CCc1nc2c(N)ncc(-c3cnn(-c4ncncc4C)c3)c2nc1N[C@@H]1CC[C@H](O)C1 [Compound 269, (1S,3R)-3-((5-amino-3-ethyl-8-(1-(5-methylpyrimidin-4-yl)-1H-pyrazol-4-yl)pyridino[3,4-b]pyrazin-2-yl)amino)cyclopentan-1-ol]
26 | ≤ 10 nM | 10 to 100 nM | CCc1nc2c(N)ncc(-c3cnn(-c4cc(C)nc(C)n4)c3)c2nc1N[C@@H]1CC[C@H](O)C1 [Compound 270]
27 | ≤ 10 nM | 10 to 100 nM | CCc1nc2c(N)ncc(-c3cnn(-c4cccc(C)n4)c3)c2nc1N[C@@H]1CC[C@H](O)C1 [Compound 271]
28 | ≤ 10 nM | ≤ 10 nM | CCc1nc2c(N)ncc(-c3cnn(-c4ccnc(C)c4)c3)c2nc1N[C@@H]1CC[C@H](O)C1 [Compound 272]
29 | ≤ 10 nM | ≤ 10 nM | CCc1nc2c(N)ncc(-c3cnn(-c4ccn(C(C)C)c(=O)c4)c3)c2nc1N[C@@H]1CC[C@H](O)C1 [Compound 273]
30 | ≤ 10 nM | 10 to 100 nM | CCc1nc2c(N)ncc(-c3cnn(-c4ccc(OC(C)C)nc4)c3)c2nc1N[C@@H]1CC[C@H](O)C1 [Compound 275]
31 | ≤ 10 nM | ≤ 10 nM | CCc1nc2c(N)ncc(-c3cnn(-c4ccc(C(C)(C)O)cn4)c3)c2nc1N[C@@H]1CC[C@H](O)C1 [Compound 276]
32 | ≤ 10 nM | ≤ 10 nM | CCc1nc2c(N)ncc(-c3cnn(-c4ccc(C5CCNCC5)cc4)c3)c2nc1N[C@@H]1CC[C@H](O)C1 [Compound 278]
33 | 10 to 100 nM | 10 to 100 nM | CCc1nc2c(N)ncc(-c3cnn(-c4ccc(Cl)c(C)c4)c3)c2nc1N[C@@H]1CC[C@H](O)C1 [Compound 279]
34 | ≤ 10 nM | ≤ 10 nM | CCc1nc2c(N)ncc(-c3cnn(-c4ccc(C5CCN(C)CC5)cc4)c3)c2nc1N[C@@H]1CC[C@H](O)C1 [Compound 290]
35 | ≤ 10 nM | 10 to 100 nM | CCc1nc2c(N)ncc(-c3cnn(-c4ccc(Cl)cc4)c3)c2nc1N[C@@H]1CC[C@H](O)C1 [Compound 291]
36 | ≤ 10 nM | ≤ 10 nM | CCc1nc2c(N)ncc(-c3cnn(-c4ncccn4)c3)c2nc1N[C@@H]1CC[C@H](O)C1 [Compound 294]
37 | ≤ 10 nM | ≤ 10 nM | CCc1nc2c(N)ncc(-c3cnn(-c4cncnc4)c3)c2nc1N[C@@H]1CC[C@H](O)C1 [Compound 295]
38 | ≤ 10 nM | ≤ 10 nM | CCc1nc2c(N)ncc(-c3cnn(-c4ccn(C)c(=O)c4)c3)c2nc1N[C@@H]1CC[C@H](O)C1 [Compound 296]
39 | ≤ 10 nM | 10 to 100 nM | CCc1nc2c(N)ncc(-c3cnn(-c4cc(C)n(C)c(=O)c4)c3)c2nc1N[C@@H]1CC[C@H](O)C1 [Compound 299]
40 | ≤ 10 nM | ≤ 10 nM | CCc1nc2c(N)ncc(-c3cnn(-c4ccc(=O)n(C)c4)c3)c2nc1N[C@@H]1CC[C@H](O)C1 [Compound 301]
